Patent US8029984B2, “Materials and methods for colorectal cancer screening, diagnosis and therapy” (Licentia, Ltd., priority 2003, dated 2011)

Columns and labels:
Assay type in all cases: cell-based, human
[1] = tested on: SW480R cells; test: BrdU incorporation in siRNA transfected SW480R cells
Description: Transfection of siRNAs was carried out using lipofectamine 2000 (Invitrogen) according to manufacturer's instructions using 0.5% (v/v) lipofectamine 2000 reagent for SW480R and 0.4% (v/v) lipofectamine 2000 for adherent SW480 cells and either 2 nM or 100 nM (f.c.) of siRNA. Transfections were carried out in antibiotic-free media for 4-6 hours before changing cells back to normal culture media. For long-term experiments siRNA transfections were repeated after 48-72 h from previous transfection (at protein level the silencing effect was seen to remain efficient for at least 96 h). Normally approximately 90-95% transfection efficiency was achieved. Opti-MEM (Invitrogen) medium was used in preparation of transfection mixtures.
Experiments were conducted to investigate whether Prox-1 plays role in the generation and maintenance of the highly transformed phenotype. Prox-1 mRNA and protein in the SW480R cells was suppressed using Prox-1 targeting siRNA. […] Eventually the Prox-1 siRNA cells started to spread on the plate and a number of increased actin stress fibers could be visualized by phalloidine staining.

[2] = tested on: SW480R cells; test: Soft agar assay (anchorage-independent growth); conditions: transfected repeatedly over 8 days, two weeks of growth
Description: FIG. 3 depicts the efficacy of Prox-1 suppression for inhibiting SW480R cell growth in soft agar. SW480R cells were transfected with GFP siPRNA, Prox-1 siRNA A16 or Prox-1 siRNA A25 or left untreated, and seeded in soft agar in triplicate. The number of colonies was scored after two weeks of growth.
For soft agar assay, 2×10^3 and 2×10^4 cells were seeded in triplicate in 1 ml of 0.33% (w/v) agar (Difco) containing D-MEM, 10% fetal bovine serum, 1 mM glutamine and antibiotics in 6-well plates containing 1 ml of 0.5% bottom agar layer. Cells were fed twice a week, and number of colonies per plate was scored after two weeks in culture.
Since anchorage-independent growth is one of the hallmarks of malignant transformation, experiments were conducted to assess the effects of Prox-1 suppression on the growth of SW480R cells in soft agar. SW480R cells were transfected with GFP siPRNA, Prox-1 siRNA A16 or Prox-1 siRNA A25 repeatedly over an 8-day period, or left untreated, and seeded in soft agar in triplicate. The number of colonies was scored after two weeks of growth.

[3] = tested on: SW480R cells; test: Treatment of SW480R cells with inhibitor of DNA methyltransferases
Source text: (§1) DNA methylation is frequently abnormal in colorectal cancer, and it was reported recently that Prox-1 expression is suppressed in human hematological cell lines due to hypermethylation of CpG islands in intron 1 of Prox-1 (Nagai, H. et al., Genes Chromosomes Cancer 38, 13-21 (2003)).

[4] = tested on: SW480A cells; test: Treatment of SW480A cells with inhibitor of DNA methyltransferases
Source text: as §1

Compound	BrdU positive cells [1] [%]	number of colonies formed in soft agar [2]	Prox-1 expression [3]	Prox-1 mRNA [4]	expression of TIMP3 [4]
GFP siRNA: control siRNA, sense GACGUAAACGGCCACAAGUUU (SEQ ID NO: 8), antisense ACUUGUGGCCGUUUACGUCUU (SEQ ID NO: 9) (listed as RNA, chemistry not given here; listed as Homo sapiens)	34±4	–	–	–	–
Prox-1 siRNA A16: siRNA duplex, sense 5′-CUGCAAGCUGGAUAGUGAAGU-3′ (SEQ ID NO: 4), antisense 5′-UUCACUAUCCAGCUUGCAGAU-3′ (SEQ ID NO: 5) (RNA, backbone not given here; listed as Homo sapiens)	22±0.5	significantly decreased	–	–	–
Nc1ncn([C@H]2C[C@H](O)[C@@H](CO)O2)c(=O)n1 [5-aza-2′-deoxycytidine]	–	–	almost completely suppressed	did not result in the increase	increase
Prox-1 siRNA A25: siRNA duplex, sense 5′-CUAUGAGCCAGUUUGAUAUUU-3′ (SEQ ID NO: 6), antisense 5′-AUAUCAAACUGGCUCAUAGUU-3′ (SEQ ID NO: 7) (RNA, backbone not given here; listed as Homo sapiens)	18±1	significantly decreased	–	–	–
